IC50 data for 17 compounds are collected here from patent US11691962B2 (eXIthera Pharmaceuticals, Inc., priority 2018, dated 2023).

For the assay, the target named is Factor XIa (Homo sapiens (Human), UniProt P03951). Nature of the assay: Factor XIa enzyme inhibition assay (dose response, fluorogenic AMC substrate). The class given is biochemical. The following applies: read-out: hFXIa IC50. The essentials: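 Fluorogenic progress curves (30 min, 1-min reads, 30° C) were recorded for 0.25 nM FXIa cleaving 50 μM Glp-Pro-Arg-AMC in Hepes pH 7.4 buffer with NaCl and Tween 20. Compounds were serially two-fold diluted, and IC50 was fitted with a Hill equation.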
Sequence of Factor XIa (P03951 388-625): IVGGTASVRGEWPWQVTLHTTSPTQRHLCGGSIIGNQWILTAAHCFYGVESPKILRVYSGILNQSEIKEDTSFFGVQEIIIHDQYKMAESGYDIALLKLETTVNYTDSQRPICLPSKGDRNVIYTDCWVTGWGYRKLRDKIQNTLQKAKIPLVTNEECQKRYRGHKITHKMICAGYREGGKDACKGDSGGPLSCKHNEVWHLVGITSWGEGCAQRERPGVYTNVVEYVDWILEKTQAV
Sequence of Factor XIa (P03951 19-387 partner): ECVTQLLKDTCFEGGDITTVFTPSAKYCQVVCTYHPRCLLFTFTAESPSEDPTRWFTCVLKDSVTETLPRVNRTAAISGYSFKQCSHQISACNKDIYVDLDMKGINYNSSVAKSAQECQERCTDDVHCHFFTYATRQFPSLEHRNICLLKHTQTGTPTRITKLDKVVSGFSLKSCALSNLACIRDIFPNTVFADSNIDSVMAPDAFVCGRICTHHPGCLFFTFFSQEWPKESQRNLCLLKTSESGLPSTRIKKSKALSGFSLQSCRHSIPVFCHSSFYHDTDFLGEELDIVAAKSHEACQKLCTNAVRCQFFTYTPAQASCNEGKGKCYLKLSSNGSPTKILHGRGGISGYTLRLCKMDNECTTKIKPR
For `CC[C@@H](NC(=O)N1C(=O)[C@H](Cc2cc(C)nc(N)c2)[C@H]1C(=O)N(C)c1cnn(C)c1)c1cc(C)ccc1C` [Compound 1-176, (2S,3R)-3-((2-amino-6-methylpyridin-4-yl)methyl)-N2-(1-methyl-1H-pyrazol-4-yl)-N1-((R)-1-(2,5-dimethylphenyl)propyl)-N2-methyl-4-oxoazetidine-1,2-dicarboxamide], the IC50 (in general, the concentration that inhibits the measured activity by half) was in the range of 10 to 100 nM.
Next, `CC[C@@H](NC(=O)N1C(=O)[C@H](Cc2cc(C)nc(N)c2)[C@H]1C(=O)N(C)c1cnn(C)c1)c1cc(C)ccc1F` [Compound 1-177, (2S,3R)-3-((2-amino-6-methylpyridin-4-yl)methyl)-N2-(1-methyl-1H-pyrazol-4-yl)-N1-((R)-1-(2-fluoro-5-methylphenyl)propyl)-N2-methyl-4-oxoazetidine-1,2-dicarboxamide]: 10 to 100 nM.
In the case of `CC[C@@H](NC(=O)N1C(=O)[C@H](Cc2cc(C)nc(N)c2)[C@H]1C(=O)N(C)c1cnn(C)c1)c1cc(F)ccc1C` [Compound 1-178, (2S,3R)-3-((2-amino-6-methylpyridin-4-yl)methyl)-N2-(1-methyl-1H-pyrazol-4-yl)-N1-((R)-1-(5-fluoro-2-methylphenyl)propyl)-N2-methyl-4-oxoazetidine-1,2-dicarboxamide] it was < 10 nM.
Next, `CC[C@@H](NC(=O)N1C(=O)[C@H](Cc2cc(C)nc(N)c2)[C@H]1C(=O)N(C)c1cnn(C)c1)c1ccc(C)cc1C` [Compound 1-179, (2S,3R)-3-((2-amino-6-methylpyridin-4-yl)methyl)-N2-(1-methyl-1H-pyrazol-4-yl)-N1-((R)-1-(2,4-dimethylphenyl)propyl)-N2-methyl-4-oxoazetidine-1,2-dicarboxamide]: < 10 nM; `CC[C@@H](NC(=O)N1C(=O)[C@H](Cc2cc(C)nc(N)c2)[C@H]1C(=O)N(C)c1cnn(C)c1)c1ccc(F)cc1C` [Compound 1-180, (2S,3R)-3-((2-amino-6-methylpyridin-4-yl)methyl)-N2-(1-methyl-1H-pyrazol-4-yl)-N1-((R)-1-(4-fluoro-2-methylphenyl)propyl)-N2-methyl-4-oxoazetidine-1,2-dicarboxamide]: 10 to 100 nM; `CC[C@@H](NC(=O)N1C(=O)[C@H](Cc2cc(C)nc(N)c2)[C@H]1C(=O)N(C)c1cnn(C)c1)c1ccc(C)cc1` [Compound 1-181, (2S,3R)-3-((2-amino-6-methylpyridin-4-yl)methyl)-N2-(1-methyl-1H-pyrazol-4-yl)-N1-((R)-1-(4-methylphenyl)propyl)-N2-methyl-4-oxoazetidine-1,2-dicarboxamide]: 10 to 100 nM.
As for `CC[C@@H](NC(=O)N1C(=O)[C@H](Cc2cc(C)nc(N)c2)[C@H]1C(=O)N(C)c1cnn(C)c1)c1ccc(C)cc1F` [Compound 1-183, (2S,3R)-3-((2-amino-6-methylpyridin-4-yl)methyl)-N2-(1-methyl-1H-pyrazol-4-yl)-N1-((R)-1-(2-fluoro-4-methylphenyl)propyl)-N2-methyl-4-oxoazetidine-1,2-dicarboxamide], the IC50 was < 10 nM.
Next, `CC[C@@H](NC(=O)N1C(=O)[C@H](Cc2cc(C)nc(N)c2)[C@H]1C(=O)N(C)c1nncs1)c1ccccc1` [Compound 1-186, (2S,3R)-3-((2-amino-6-methylpyridin-4-yl)methyl)-N2-(1,3,4-thiadiazol-2-yl)-N1-((R)-1-phenylpropyl)-N2-methyl-4-oxoazetidine-1,2-dicarboxamide]: < 10 nM; `CC[C@@H](NC(=O)N1C(=O)[C@H](Cc2cc(C)nc(N)c2)[C@H]1C(=O)N(C)c1nnco1)c1ccccc1` [Compound 1-187, (2S,3R)-3-((2-amino-6-methylpyridin-4-yl)methyl)-N2-(1,3,4-oxadiazol-2-yl)-N1-((R)-1-phenylpropyl)-N2-methyl-4-oxoazetidine-1,2-dicarboxamide]: < 10 nM; `CC[C@@H](NC(=O)N1C(=O)[C@H](Cc2cc(C)nc(N)c2)[C@H]1C(=O)N(C)c1cnn(C)c1)c1ccc(F)cc1F` [Compound 1-188, (2S,3R)-3-((2-amino-6-methylpyridin-4-yl)methyl)-N2-(1-methyl-1H-pyrazol-4-yl)-N1-((R)-1-(2,4-difluorophenyl)propyl)-N2-methyl-4-oxoazetidine-1,2-dicarboxamide]: 10 to 100 nM.
Regarding `CC[C@@H](NC(=O)N1C(=O)[C@H](Cc2cc(C)nc(N)c2)[C@H]1C(=O)N(C)c1cnn(C)c1)c1cc(F)cc(F)c1` [Compound 1-189, (2S,3R)-3-((2-amino-6-methylpyridin-4-yl)methyl)-N2-(1-methyl-1H-pyrazol-4-yl)-N1-((R)-1-(3,5-difluorophenyl)propyl)-N2-methyl-4-oxoazetidine-1,2-dicarboxamide], the IC50 lay in the range of 10 to 100 nM.
Next, `CC[C@@H](NC(=O)N1C(=O)[C@H](Cc2cc(C)nc(N)c2)[C@H]1C(=O)N(C)c1cnn(C)c1)c1cccc(C)c1F` [Compound 1-190, (2S,3R)-3-((2-amino-6-methylpyridin-4-yl)methyl)-N2-(1-methyl-1H-pyrazol-4-yl)-N1-((R)-1-(2-fluoro-3-methylphenyl)propyl)-N2-methyl-4-oxoazetidine-1,2-dicarboxamide]: < 10 nM.
On to `CC[C@@H](NC(=O)N1C(=O)[C@H](Cc2cc(C)nc(N)c2)[C@H]1C(=O)N(C)c1cnn(C)c1)c1cccc(F)c1C` [Compound 1-191, (2S,3R)-3-((2-amino-6-methylpyridin-4-yl)methyl)-N2-(1-methyl-1H-pyrazol-4-yl)-N1-((R)-1-(3-fluoro-2-methylphenyl)propyl)-N2-methyl-4-oxoazetidine-1,2-dicarboxamide], for which the 50% inhibitory concentration (IC50) was 10 to 100 nM.
For the compound `CC[C@@H](NC(=O)N1C(=O)[C@H](Cc2ccnc(N)c2)[C@H]1C(=O)N(C)c1nccn1C)c1ccc(C)c(F)c1F` [Compound 1-192, (2S,3R)-3-((2-aminopyridin-4-yl)methyl)-N2-(1-methyl-1H-imidazol-2-yl)-N1-((R)-1-(2,3-difluoro-4-methylphenyl)propyl)-N2-methyl-4-oxoazetidine-1,2-dicarboxamide], the IC50 is < 10 nM.
In the case of `CC[C@@H](NC(=O)N1C(=O)[C@H](Cc2ccnc(N)c2)[C@H]1C(=O)N(C)c1nccn1C)c1cc(C)c(F)c(C)c1` [Compound 1-195, (2S,3R)-3-((2-aminopyridin-4-yl)methyl)-N2-(1-methyl-1H-imidazol-2-yl)-N1-((R)-1-(3,5-dimethyl-4-fluorophenyl)propyl)-N2-methyl-4-oxoazetidine-1,2-dicarboxamide] it was < 10 nM.
Next, `CC[C@@H](NC(=O)N1C(=O)[C@H](Cc2ccnc(N)c2)[C@H]1C(=O)N(C)c1nccn1C)c1ccc(C)c(F)c1C` [Compound 1-196, (2S,3R)-3-((2-aminopyridin-4-yl)methyl)-N2-(1-methyl-1H-imidazol-2-yl)-N1-((R)-1-(2,4-dimethyl-3-fluorophenyl)propyl)-N2-methyl-4-oxoazetidine-1,2-dicarboxamide]: < 10 nM; `CC[C@@H](NC(=O)N1C(=O)[C@H](Cc2ccnc(N)c2)[C@H]1C(=O)N(C)c1ccn(C)n1)c1ccc(C)c(F)c1F` [Compound 1-201, (2S,3R)-3-((2-aminopyridin-4-yl)methyl)-N2-(1-methyl-1H-pyrazol-3-yl)-N1-((R)-1-(2,3-difluoro-4-methylphenyl)propyl)-N2-methyl-4-oxoazetidine-1,2-dicarboxamide]: < 10 nM.
